From patent US9745304B2, “Amidoimidazopyridazines as MKNK-1 kinase inhibitors” (BAYER PHARMA AKTIENGESELLSCHAFT, priority 2013, dated 2017)

Tests used:
[1] = biological target: human full-lengt MKNK1 (GST fusion, T344D) (Homo sapiens (Human), UniProt Q9BUB5, T344D); experiment: MKNK1 kinase assay (TR-FRET, 10 μM ATP); format: biochemical; settings: 15 min preincubation
Experimental: MKNK1-inhibitory activity of compounds of the present invention was quantified employing the MKNK1 TR-FRET assay as described in the following paragraphs.
As substrate for the kinase reaction the biotinylated peptide biotin-Ahx-[…] (C-terminus in amide form) was used which can be purchased e.g. form the company Biosyntan (Berlin-Buch, Germany).
For the assay 50 nL of a 100 fold concentrated solution of the test compound in DMSO was pipetted into a black low volume 384 well microtiter plate (Greiner Bio-One, Frickenhausen, Germany), 2 μL of a solution of MKNK1 in aqueous assay buffer [50 mM HEPES pH 7.5, 5 mM magnesium chloride, 1.0 mM dithiothreitol, 0.005% (v/v) Nonidet-P40 (Sigma)] was added and the mixture was incubated for 15 min at 22° C. to allow pre-binding of the test compounds to the enzyme before the start of the kinase reaction. […] The concentration of MKNK1 was adjusted depending of the activity of the enzyme lot and was chosen appropriate to have the assay in the linear range, typical concentrations were in the range of 0.05 μg/ml. The reaction was stopped by the addition of 5 μL of a solution of TR-FRET detection reagents (5 nM streptavidine-XL665 [Cisbio Bioassays, Codolet, France] and 1 nM anti-ribosomal protein S6 (pSer236)-antibody from Invitrogen [#44921G] and 1 nM LANCE EU-W1024 labeled ProteinG [Perkin-Elmer, product no. AD0071]) in an aqueous EDTA-solution (100 mM EDTA, 0.1% (w/v) bovine serum albumin in 50 mM HEPES pH 7.5).
(§1) The resulting mixture was incubated for 1 h at 22° C. to allow the formation of complex between the phosphorylated biotinylated peptide and the detection reagents. Subsequently the amount of phosphorylated substrate was evaluated by measurement of the resonance energy transfer from the Eu-chelate to the streptavidine-XL. Therefore, the fluorescence emissions at 620 nm and 665 nm after excitation at 350 nm were measured in a TR-FRET reader, e.g. a Rubystar (BMG Labtechnologies, Offenburg, Germany) or a Viewlux (Perkin-Elmer). The ratio of the emissions at 665 nm and at 622 nm was taken as the measure for the amount of phosphorylated substrate.

[2] = biological target: human full-length MKNK1 (GST fusion, T344D) (Homo sapiens (Human), UniProt Q9BUB5, T344D); experiment: MKNK1 kinase high ATP assay (TR-FRET, 2 mM ATP); format: biochemical; settings: 15 min preincubation
Experimental: MKNK1 Kinase High ATP Assay
MKNK1-inhibitory activity at high ATP of compounds of the present invention after their preincubation with MKNK1 was quantified employing the TR-FRET-based MKNK1 high ATP assay as described in the following paragraphs.
As substrate for the kinase reaction the biotinylated peptide biotin-Ahx-[…] (C-terminus in amide form) was used, which can be purchased e.g. from the company Biosyntan (Berlin-Buch, Germany).
For the assay 50 nL of a 100 fold concentrated solution of the test compound in DMSO was pipetted into a black low volume 384 well microtiter plate (Greiner Bio-One, Frickenhausen, Germany), 2 μL of a solution of MKNK1 in aqueous assay buffer [50 mM HEPES pH 7.5, 5 mM magnesium chloride, 1.0 mM dithiothreitol, 0.005% (v/v) Nonidet-P40 (Sigma)] was added and the mixture was incubated for 15 min at 22° C. to allow pre-binding of the test compounds to the enzyme before the start of the kinase reaction. Then the kinase reaction was started by the addition of 3 μL of a solution of adenosine-tri-phosphate (ATP, 3.3 mM=>final conc. in the 5 μL assay volume is 2 mM) and substrate (0.1 μM=>final conc. in the 5 μL assay volume is 0.06 μM) in assay buffer and the resulting mixture was incubated for a reaction time of 30 min at 22° C. The concentration of MKNK1 was adjusted depending of the activity of the enzyme lot and was chosen appropriate to have the assay in the linear range, typical concentrations were in the range of 0.003 μg/mL. The reaction was stopped by the addition of 5 μL of a solution of TR-FRET detection reagents (5 nM streptavidine-XL665 [Cisbio Bioassays, Codolet, France] and 1 nM anti-ribosomal protein S6 (pSer236)-antibody from Invitrogen [#44921G] and 1 nM LANCE EU-W1024 labeled ProteinG [Perkin-Elmer, product no. AD0071]) in an aqueous EDTA-solution (100 mM EDTA, 0.1% (w/v) bovine serum albumin in 50 mM HEPES pH 7.5).
as §1

Chain of human full-lengt MKNK1 (GST fusion, T344D) (Q9BUB5 other isoform, or with tags, fused parts or gaps T344D): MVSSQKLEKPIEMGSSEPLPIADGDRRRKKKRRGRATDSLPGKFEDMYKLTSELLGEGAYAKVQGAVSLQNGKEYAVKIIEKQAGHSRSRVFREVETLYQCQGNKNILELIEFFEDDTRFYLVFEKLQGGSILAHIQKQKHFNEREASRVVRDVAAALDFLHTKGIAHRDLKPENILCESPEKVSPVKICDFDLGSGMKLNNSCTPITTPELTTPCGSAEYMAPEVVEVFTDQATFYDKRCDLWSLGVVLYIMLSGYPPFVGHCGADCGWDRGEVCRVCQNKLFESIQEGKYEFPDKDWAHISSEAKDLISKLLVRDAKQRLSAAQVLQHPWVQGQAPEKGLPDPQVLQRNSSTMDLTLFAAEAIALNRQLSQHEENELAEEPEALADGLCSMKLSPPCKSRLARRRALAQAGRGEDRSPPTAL
Chain of human full-length MKNK1 (GST fusion, T344D) (Q9BUB5 other isoform, or with tags, fused parts or gaps T344D): as above

With `O=C(CCc1c[nH]cn1)Nc1ccc2ncc(-c3cc4ccccc4o3)n2n1` [Example 19, N-[3-(1-Benzofuran-2-yl)imidazo[1,2-b]pyridazin-6-yl]-3-(1H-imidazol-4-yl)-propanamide] the IC50 [1] was 8 nM and the IC50 [2] was 6 nM.
`O=C(Cc1ccccn1)Nc1ccc2ncc(-c3cc4ccccc4o3)n2n1` [Example 6, N-[3-(1-Benzofuran-2-yl)imidazo[1,2-b]pyridazin-6-yl]-2-(pyridin-2-yl)acetamide] gave an IC50 [1] of 7 nM and an IC50 [2] of 12 nM.
`COc1nccc2oc(-c3cnc4ccc(NC(=O)[C@H](C)O)nn34)cc12` [Example 16, (2S)-2-hydroxy-N-[3-(4-methoxyfuro[3,2-c]pyridin-2-yl)imidazo[1,2-b]pyridazin-6-yl]propanamide] showed an IC50 [1] of 10 nM and an IC50 [2] of 13 nM.
`C[C@H](O)C(=O)Nc1ccc2ncc(-c3cc4ccccc4o3)n2n1` [Example 14, (2S)—N-[3-(1-Benzofuran-2-yl)imidazo[1,2-b]pyridazin-6-yl]-2-hydroxypropanamide] was tested, and the IC50 [1] was 8 nM and the IC50 [2] was 20 nM.
With `Cc1cccc(CCC(=O)Nc2ccc3ncc(-c4cc5ccccc5o4)n3n2)c1` [Example 31, N-[3-(1-benzofuran-2-yl)imidazo[1,2-b]pyridazin-6-yl]-3-(3-methylphenyl)propanamide] the IC50 [1] was 67 nM and the IC50 [2] was 62 nM.
In the case of `O=C(Nc1ccc2ncc(-c3cc4ccccc4o3)n2n1)C(O)c1ccccc1` (stereo not drawn) [Example 2, N-[3-(1-Benzofuran-2-yl)imidazo[1,2-b]pyridazin-6-yl]-2-hydroxy-2-phenylacetamide], the IC50 [1] is reported as 7 nM and the IC50 [2] is reported as 18 nM.
Compound `N#CC1(C(=O)Nc2ccc3ncc(-c4cc5ccccc5o4)n3n2)CC1` [Example 24, N-[3-(1-benzofuran-2-yl)imidazo[1,2-b]pyridazin-6-yl]-1-cyanocyclopropane carboxamide] has an IC50 [1] of 25 nM and an IC50 [2] of 36 nM.
`O=C(Nc1ccc2ncc(-c3cc4ccccc4o3)n2n1)C(O)C1CCCCC1` (stereo not drawn) [Example 4, N-[3-(1-Benzofuran-2-yl)imidazo[1,2-b]pyridazin-6-yl]-2-cyclohexyl-2-hydroxyacetamide] was tested, and the IC50 [1] was 7 nM and the IC50 [2] was 10 nM.
With `O=C(CCC1CC1)Nc1ccc2ncc(-c3cc4ccccc4o3)n2n1` [Example 22, N-[3-(1-benzofuran-2-yl)imidazo[1,2-b]pyridazin-6-yl]-3-cyclopropylpropanamide] the IC50 [1] was 13 nM and the IC50 [2] was 23 nM.
Compound `COc1nccc2oc(-c3cnc4ccc(NC(=O)[C@@H](C)O)nn34)cc12` [Example 15, (2R)-2-hydroxy-N-[3-(4-methoxyfuro[3,2-c]pyridin-2-yl)imidazo[1,2-b]-pyridazin-6-yl]propanamide] has an IC50 [1] of 3 nM and an IC50 [2] of 7 nM.
Compound `CCN(CC)CCC(=O)Nc1ccc2ncc(-c3cc4ccccc4o3)n2n1` [Example 23, N-[3-(1-benzofuran-2-yl)imidazo[1,2-b]pyridazin-6-yl]-N^3,N^3-diethyl-β-alaninamide] has an IC50 [1] of 9 nM and an IC50 [2] of 13 nM.
`O=C1CC[C@@H](CO)N1c1ccc2ncc(-c3cc4ccccc4o3)n2n1` [Example 11, (5S)-1-[3-(1-Benzofuran-2-yl)imidazo[1,2-b]pyridazin-6-yl]-5-(hydroxymethyl)-pyrrolidin-2-one] was tested, and the IC50 [1] was 3 nM and the IC50 [2] was 7 nM.
`N#Cc1cccc(CC(=O)Nc2ccc3ncc(-c4cc5ccccc5o4)n3n2)c1` [Example 21, N-[3-(1-benzofuran-2-yl)imidazo[1,2-b]pyridazin-6-yl]-2-(3-cyanophenyl)acetamide] gave an IC50 [1] of 14 nM and an IC50 [2] of 11 nM.
For `O=C(Nc1ccc2ncc(-c3cc4ccccc4o3)n2n1)c1cc(=O)[nH]c(=O)[nH]1` [Example 10, N-[3-(1-Benzofuran-2-yl)imidazo[1,2-b]pyridazin-6-yl]-2,6-dioxo-1,2,3,6-tetrahydropyrimidine-4-carboxamide], the IC50 [1] was 36 nM and the IC50 [2] was 36 nM.
`O=C(Cc1ccccc1)Nc1ccc2ncc(-c3cc4ccccc4o3)n2n1` [Example 1, N-[3-(1-Benzofuran-2-yl)imidazo[1,2-b]pyridazin-6-yl]-2-phenylacetamide] showed an IC50 [1] of 8 nM and an IC50 [2] of 18 nM.
Work on `O=C(Cc1cccc(F)c1)Nc1ccc2ncc(-c3cc4ccccc4o3)n2n1` [Example 8, N-[3-(1-Benzofuran-2-yl)imidazo[1,2-b]pyridazin-6-yl]-2-(3-fluorophenyl)-acetamide] yielded an IC50 [1] of 10 nM and an IC50 [2] of 23 nM.
In the case of `C[C@@H](O)C(=O)Nc1ccc2ncc(-c3cc4ccccc4o3)n2n1` [Example 13, (2R)—N-[3-(1-Benzofuran-2-yl)imidazo[1,2-b]pyridazin-6-yl]-2-hydroxypropanamide], the IC50 [1] is reported as 4 nM and the IC50 [2] is reported as 12 nM.
`CC1CCN(CC(=O)Nc2ccc3ncc(-c4cc5ccccc5o4)n3n2)CC1` [Example 32, N-[3-(1-benzofuran-2-yl)imidazo[1,2-b]pyridazin-6-yl]-2-(4-methylpiperidin-1-yl)acetamide] was tested, and the IC50 [1] was 17 nM and the IC50 [2] was 18 nM.
Work on `O=C(CCc1cccnc1)Nc1ccc2ncc(-c3cc4ccccc4o3)n2n1` [Example 9, N-[3-(1-Benzofuran-2-yl)imidazo[1,2-b]pyridazin-6-yl]-3-(pyridin-3-yl)propanamide] yielded an IC50 [1] of 3 nM and an IC50 [2] of 7 nM.
`CC(C)CC(=O)Nc1ccc2ncc(-c3cc4ccccc4o3)n2n1` [Example 17, N-[3-(1-Benzofuran-2-yl)imidazo[1,2-b]pyridazin-6-yl]-3-methylbutanamide] was tested, and the IC50 [1] was 4 nM and the IC50 [2] was 7 nM.
`O=C(Nc1ccc2ncc(-c3cc4ccccc4o3)n2n1)C(O)c1cccnc1` (stereo not drawn) [Example 3, N-[3-(1-Benzofuran-2-yl)imidazo[1,2-b]pyridazin-6-yl]-2-hydroxy-2-(pyridin-3-yl)acetamide] gave an IC50 [1] of 3 nM and an IC50 [2] of 11 nM.
